Laboratory results taken from US7091351B2, “Vanadium compounds for treating cancer” (Parker Hughes Institute, priority 1998, dated 2006).

Legend:
[1] = test system: Tera-2 testicular cancer cells; assay: MTT cytotoxicity assay of vanadocenes, TERA-2 cells; format: cell-based, human; details: 24 h, 1.9-250 μM
Experimental: (§1) Human testicular cancer cell lines, Tera-2 (embryonal carcinoma) and Ntera-2 (pluripotent embryonal carcinoma) were obtained from the American Type Culture Collection (ATCC) (Rockeville, Md.) and propagated in T-25, T-75, or T-150 cm^2 tissue culture flasks (Corning Corp., Corning, N.Y.) in McCoy's 5A medium and Dulbecco's modified Eagle's medium respectively. Both media were supplemented with 10% fetal calf serum (FCS), 4 mM glutamine, 100 U/ml penicillin G, and […] streptomycin sulfate. All tissue culture reagents were obtained from Life Technologies Inc. (GIBCO-BRL), Gaithersburg, Md. Cell lines were cultivated for a minimum of two passages after thawing prior to experimentation. Other cell lines that were used in this study were the human B-lineage acute lymphoblastic leukemia (ALL) cell line NALM-6. Uckun, F. M., Evans, W. E., Forsyth, C. J., Waddick, K. G., Tuel-Ahlgren, L., Chelstrom, L. M., Burkhardt, A., Bolen, J., Myers, D. E. Biotherapy of B-cell precursor leukemia by targeting genistein to CD19-associated tyrosine kinase. Science (Washington DC) 267:886–91, 1995; T-lineage ALL cell line MOLT-3, Waurzyniak, B., Shneider, E. A., Tumer, N., Yanishevski, Y., Gunther, R., Chelstrom, L., Wendorf, H., Myers, D. E., Irvin, J. D., Messinger, Y., Ek, O., Zeren, T., Chandan-Langlie, M., Evans, W. E., Uckun, F. M. In vivo toxicity, pharmacokinetics, and antileukemic activity of TXU (anti-CD7)-pokeweed antiviral protein immunotoxin. Clinical Cancer Research 3:881–890, 1997; AML cell line HL-60, Perentesis, J. P., Waddick, K. G., Bendel, A. E., Shao, Y., Warman, B. E., Chandan-Langlie, M., and Uckun, F. M. Induction of apoptosis in multi-drug resistant andradiation-resistant acute myeloid leukemia cells by a recombinant fusion toxin directed against the granulocyte macrophage colony stimulating factor receptor. Clin. Cancer Res. 3:347–355, 1997; breast cancer cell lines MDA-MB-231 and BT-20, Uckun, F. M., Narla, R. K., Jun, X., Zeren, T., Venkatachalam, T., Waddick, K. G., Rostostev, A., Myers, D. E. Cytotoxic activity of EGF-genstein against breast cancer cells. Clin. Cancer Res. 4:901–912, 1998; glioblastoma cell lines U87 and U373, Narla, R. K., Liu, X., Myers, D. E., and Uckun, F. M. 4-(3′-Bromo-4′hydroxylphenyl)-amino-6,7-dimethoxyquinazoline (WHI-P154): A novel quinazoline derivative with potent cytotoxic activity against human glioblastoma cells. Clin. Cancer Res. 4:1405–1414, 1998.
(§2) MTT (3-[4,5-dimethyl thiazol-2-yl]-2,5-diphenyltetrazolium bromide)-based colorimetric assays were used for evaluation of the cytotoxicity of vanadocene compounds. Mosmann, T. Rapid colorimetric assay for cellular growth and survival: application to proliferation and cytotoxicity assays. J. Immunol. Methods, 65: 55–63, 1983. Briefly, cells were harvested with 0.125% (w/v) trypsin-0.02% EDTA (GIBCO-BRL) from exponential-phase maintenance cultures and centrifuged (300 g×5 min). After suspension and counting, cells were dispensed within triplicate 96-well tissue culture plates in 100 μl volumes. After 24 h incubation, the culture medium was discarded and replaced with 100 μl of fresh medium containing serial two-fold dilutions of drugs in medium to yield 1.9 μM to 250 μM. All compounds were reconstituted in DMSO to a concentration of 100 mM, and the stock solution was made fresh for each experiment. Control wells consisted of medium containing 0.25% of DMSO alone were used for solvent control. Culture plates were then incubated for 24 h before adding 10 μl of MTT solution (5 mg/ml in PBS) to each well. Wells containing only medium and MTT were used as controls for each plate. The tetrazolium/formazan reaction was allowed to proceed for 4 h at 37° C., and then 100 μl of the solubilization buffer (10% sodium dodecyl sulfate in 0.1% HCl) were added to all wells and mixed thoroughly to dissolve the dark blue formazan crystals. […]

[2] = test system: Tera-2 and Ntera-2 human testicular cancer cell lines; assay: MTT cytotoxicity assay, text statements for both testicular cancer cell lines; format: cell-based; details: Tera-2 and Ntera-2, tested side-by-side, up to 250 μM; read-out: IC50 (cytotoxicity, two testicular cancer cell lines)
Experimental: Human testicular cancer cell lines, Tera-2 (embryonal carcinoma) and Ntera-2 (pluripotent embryonal carcinoma) were obtained from the American Type Culture Collection (ATCC) (Rockeville, Md.) and propagated in T-25, T-75, or T-150 cm^2 tissue culture flasks (Corning Corp., Corning, N.Y.) in McCoy's 5A medium and Dulbecco's modified Eagle's medium respectively. Both media were supplemented with 10% fetal calf serum (FCS), 4 mM glutamine, 100 U/ml penicillin G, and 100 mg/ml streptomycin sulfate. All tissue culture reagents were obtained from Life Technologies Inc. (GIBCO-BRL), Gaithersburg, Md. Cell lines were cultivated for a minimum of two passages after thawing prior to experimentation.
MTT (3-[4,5-dimethyl thiazol-2-yl]-2,5-diphenyltetrazolium bromide)-based colorimetric assays were used for evaluation of the cytotoxicity of vanadocene compounds. […] Briefly, cells were harvested with 0.125% (w/v) trypsin-0.02% EDTA (GIBCO-BRL) from exponential-phase maintenance cultures and centrifuged (300 g×5 min). After suspension and counting, cells were dispensed within triplicate 96-well tissue culture plates in 100 μl volumes. […] After an overnight incubation at 37° C., the optical densities at 540 nm were measured using a 96-well multiscanner autoreader, with the solubilization buffer serving as blank. All assays were run in triplicate and results were expressed as IC50 values.

[3] = test system: Ntera-2 testicular cancer cells; assay: MTT cytotoxicity assay of vanadocenes, NTERA-2 cells; format: cell-based, human; details: 24 h, 1.9-250 μM
Experimental: as §1, §2

[4] = test system: NTD1 testicular cancer cells; assay: Cytotoxic activity of oxovanadium(IV) compounds, NTD1; format: cell-based, human; details: read-out: Cytotoxic Activity NTD1
Experimental: (§3) The cytotoxicity of oxovanadium (W) complexes listed in Table 6 were tested against 9 different human cancer cell lines was performed using the MTT (3-[4,5-dimethylthiazol-2-yl]-2,5-diphenyl tetrazolium bromide) assay (Boehringer Mannheim Corp., Indianapolis, Ind.) as described previously (20). Briefly, exponentially growing tumor cells were seeded into a 96-well plate at a density of 4×10^4cells/well and incubated with medium containing the oxovanadium(IV) compounds concentrations ranging from 0.1 to 250 μM for 48 hours at 37° C. in a humidified 5% CO2 atmosphere. Triplicate wells were used for each treatment. To each well, 10 μl of MTT (0.5 mg/ml final concentration) was added and the plates were incubated at 37° C. for 4 hours to allow MTT to form formazan crystals by reacting with metabolically active cells . The formazan crystals were solubilized overnight at 37° C. in a solution containing 10% SDS in 0.01 M HCl. The absorbence of each well was measured in a microplate reader (Labsystems) at 540 nm and a reference wavelength of 690 nm. To translate the OD540 values into the number of live cells in each well, the OD540 values were compared to those on standard OD540—versus—cell number curves generated for each cell line. The percent survival was calculated using the formula: % survival=Live cell number[test]/Live cell number [control]×100. The IC50 values were calculated by non-linear regression analysis using an Graphpad Prism software version 2.0 (Graphpad Software, Inc., San Diego, Calif.).

[5] = test system: HS-SULTAN cells; assay: In situ detection of apoptosis, confocal microscopy, HS-SULTAN; format: cell-based, human; details: 48 hours after treatment
Experimental: (§4) Exponentially growing cells were seeded in 6-well tissue culture plates and incubated with fresh medium containing compounds. […] The cells were fixed in 2% paraformaldehyde, washed with PBS and pelleted by centrifuging the tubes at 1000 rpm for 5 min. Cells pellets were resuspended in 50 μl of PBS, transferred to superforst plus slides and allowed to attach for 15 min. The cells were permeabilized with 0.1% triton X-100 in 0.1% citrate buffer and incubated for 1 hr at 37° C. with the reaction mixture containing terminal deoxynucleotidyl transferase (TdT) and fluorescein isothiocyanate (FITC)-conjugated dUTP. Cells were washed with PBS to remove unbound reagents and the coverslips were mounted onto slides with Vectashield containing propidium iodide (Vector Labs, Burlingame, Calif.) and slides were viewed with a confocal laser scanning microscope. […] In control reactions, the TdT enzyme was omitted from the reaction mixture.

[6] = test system: 833-K testicular cancer cells; assay: Cytotoxic activity of oxovanadium(IV) compounds, 833-K; format: cell-based, human; details: read-out: Cytotoxic Activity 833-K
Experimental: as §3

[7] = test system: BT20 breast cancer cells; assay: Cytotoxic activity of oxovanadium(IV) compounds, BT20; format: cell-based, human; details: read-out: Cytotoxic Activity BT20
Experimental: as §3

[8] = test system: MOLT-3 cells; assay: MTT cytotoxicity assay of oxovanadium(IV) compounds, MOLT-3; format: cell-based, human; details: 48 hr
Experimental: as §3

[9] = test system: NALM-6 cells; assay: MTT cytotoxicity assay of oxovanadium(IV) compounds, NALM-6; format: cell-based, human; details: 48 hr
Experimental: as §3

[10] = test system: Tera-2 testicular cancer cells; assay: Cytotoxic activity of oxovanadium(IV) compounds, TERA-2; format: cell-based, human; details: read-out: Cytotoxic Activity TERA-2
Experimental: as §3

[11] = test system: NALM-6 cells; assay: In situ detection of apoptosis, confocal microscopy, NALM-6; format: cell-based, human; details: 48 hours after treatment
Experimental: as §4

[12] = test system: ARH77 multiple myeloma cells; assay: MTT cytotoxicity assay of oxovanadium(IV) compounds, ARH77; format: cell-based, human; details: 48 hr
Experimental: as §3, with “Briefly, exponentially growing tumor cells were seeded into a 96-well plate at a density of 4×10^4cells/well and incubated with medium containing the oxovanadium(IV) compounds concentrations ranging from 0.1 to 250 μM for 48 hours at 37° C. in a humidified 5% CO2 atmosphere.” left out

[13] = test system: HL-60 cells; assay: MTT cytotoxicity assay of oxovanadium(IV) compounds, HL-60; format: cell-based, human; details: 48 hr
Experimental: as §3

[14] = test system: HS445 Hodgkin's lymphoma cells; assay: MTT cytotoxicity assay of oxovanadium(IV) compounds, HS445; format: cell-based, human; details: 48 hr
Experimental: as §3

[15] = test system: HS-SULTAN multiple myeloma cells; assay: MTT cytotoxicity assay of oxovanadium(IV) compounds, HS-SULTAN; format: cell-based, human; details: 48 hr
Experimental: as §3

[16] = test system: 64cp5 testicular cancer cells; assay: Cytotoxic activity of oxovanadium(IV) compounds, 64cp5; format: cell-based, human; details: read-out: Cytotoxic Activity 64cp5
Experimental: as §3

[17] = test system: PC3 prostate cancer cells; assay: Cytotoxic activity of oxovanadium(IV) compounds, PC3; format: cell-based, human; details: read-out: Cytotoxic Activity PC3
Experimental: as §3

[18] = test system: U373 glioblastoma cells; assay: Cytotoxic activity of oxovanadium(IV) compounds, U373; format: cell-based, human; details: read-out: Cytotoxic Activity U373
Experimental: as §3

[19] = test system: U266BL multiple myeloma cells; assay: MTT cytotoxicity assay of oxovanadium(IV) compounds, U266BL; format: cell-based, human; details: 48 hr
Experimental: as §3

Row | Molecule | IC50 [1] [µM] | IC50 [2] [µM] | IC50 [3] [µM] | IC50 [4] [µM] | apoptotic nuclei (FITC-dUTP / propidium iodide), HS-SULTAN [5] | IC50 [6] [µM] | IC50 [7] [µM] | IC50 [8] [µM] | IC50 [9] [µM] | IC50 [10] [µM] | apoptotic nuclei (FITC-dUTP / propidium iodide), NALM-6 [11] | IC50 [12] [µM] | IC50 [13] [µM] | IC50 [14] [µM] | IC50 [15] [µM] | IC50 [16] [µM] | IC50 [17] [µM] | IC50 [18] [µM] | IC50 [19] [µM]
1 | O=S(=O)([O-])[O-].[O]=[V+2] [VDSO4, vanadyl(IV) sulfate, reference compound] | > 250 | > 250 | > 250 | – | – | – | – | – | – | – | – | – | – | – | – | – | – | – | –
2 | (diaqua)(4,7-dimethyl-1,10-phenanthroline)oxovanadium(IV) sulfate [Compound 28] | – | – | – | 12.8 | many apoptotic yellow nuclei | 6 | 2.1 | 1.37 ± 0.07 | 0.78 ± 0.1 | 57.6 | many apoptotic yellow nuclei | 8.1 ± 1.6 | 6.2 ± 2.3 | 3.3 ± 1.4 | 5.1 ± 1.02 | 15.2 | 5.8 | 2.2 | 1.3 ± 0.1
